# According to patent publication US10676509B2, “Surface-immobilized antimicrobial peptoids” (Northwestern University, priority 2008, dated 2020):
# Non-standard residues stand in square brackets, D forms with d. Residues, ends and D or L forms follow the SMILES beside them. Dopa = N[C@@H](Cc1ccc(O)c(O)c1)C(=O)O; Nme = COCCNCC(=O)O
# Key:
# [1] = test system: S. epidermidis; format: cell-based, Staphylococcus epidermidis RP62A (ATCC 12228); settings: 16 h
# Experimental: (§1) The polymers were initially tested to determine their antibacterial properties in the solution state. Antibacterial activities of the compounds were tested using the methods described above for both Gram-negative and Gram-positive bacterial strains.
# (§2) The minimum inhibitory concentration (MIC) for each polymer was determined according to Clinical Laboratory Standards Institute (CLSI) broth microdilution protocols (M7-A6). The procedure explained previously was followed (Chongsiriwatana et al., supra); briefly, serial dilutions of the polymers were prepared in Mueller-Hinton broth (MHB) in 96-well microtiter plates and bacterial inoculum in MHB was added to each well (˜5.0×10^4 CFU/well). Optical density was monitored at 590 nm for 16 h at 35° C.
# [2] = test system: B. subtilis; format: cell-based, Bacillus subtilis (ATCC 6633); settings: 16 h
# Experimental: as §1, §2
# [3] = test system: P. aeruginosa; format: cell-based, Pseudomonas aeruginosa (ATCC 700829); settings: 16 h
# Experimental: as §1, §2
# [4] = target: T1, fibrinogen from human plasma (Homo sapiens, UniProt P02671+P02675+P02679); assay: Short-term fibrinogen adsorption on modified TiO2 sensors using OWLS; settings: Table 7, fibrinogen 3 mg/ml, 20 min, 37° C., mean ± SD
# T1 construct: fibrinogen from human plasma was dissolved at 3 mg/ml concentrations in buffer B; purchased Aldrich (Milwaukee, Wis.); host or cells: human plasma
# T1 sequence (P02671 20-644 isoform P02671-2 limits assumed): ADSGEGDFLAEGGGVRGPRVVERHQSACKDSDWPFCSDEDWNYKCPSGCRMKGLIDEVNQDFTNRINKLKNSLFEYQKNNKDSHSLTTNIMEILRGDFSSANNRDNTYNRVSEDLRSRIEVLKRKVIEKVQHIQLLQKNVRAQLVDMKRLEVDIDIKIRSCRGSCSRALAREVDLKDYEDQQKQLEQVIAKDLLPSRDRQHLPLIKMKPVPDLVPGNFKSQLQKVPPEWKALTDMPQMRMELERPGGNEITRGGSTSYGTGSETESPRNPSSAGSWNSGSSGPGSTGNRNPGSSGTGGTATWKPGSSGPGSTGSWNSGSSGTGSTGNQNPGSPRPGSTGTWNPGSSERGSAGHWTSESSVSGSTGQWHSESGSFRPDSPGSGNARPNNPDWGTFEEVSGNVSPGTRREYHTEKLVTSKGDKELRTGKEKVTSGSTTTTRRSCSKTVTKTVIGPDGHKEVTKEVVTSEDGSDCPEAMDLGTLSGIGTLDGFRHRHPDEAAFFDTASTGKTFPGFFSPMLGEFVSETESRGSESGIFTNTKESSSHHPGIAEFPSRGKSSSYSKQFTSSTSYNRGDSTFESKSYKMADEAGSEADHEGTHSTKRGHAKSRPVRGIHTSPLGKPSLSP
# T1 sequence (P02675 31-491): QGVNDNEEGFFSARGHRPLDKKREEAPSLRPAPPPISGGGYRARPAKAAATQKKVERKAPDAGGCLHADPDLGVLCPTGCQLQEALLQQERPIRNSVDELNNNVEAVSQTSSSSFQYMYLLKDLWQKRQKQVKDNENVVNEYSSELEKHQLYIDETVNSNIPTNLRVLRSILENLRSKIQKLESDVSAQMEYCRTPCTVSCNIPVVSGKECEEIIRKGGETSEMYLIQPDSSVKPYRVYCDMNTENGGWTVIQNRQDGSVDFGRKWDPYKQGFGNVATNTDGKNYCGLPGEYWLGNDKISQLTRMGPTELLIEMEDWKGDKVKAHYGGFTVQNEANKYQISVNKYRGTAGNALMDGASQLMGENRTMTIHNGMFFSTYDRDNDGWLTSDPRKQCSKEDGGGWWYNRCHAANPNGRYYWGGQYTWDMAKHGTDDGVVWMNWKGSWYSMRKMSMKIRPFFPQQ
# T1 sequence (P02679 27-437 isoform P02679-2 limits assumed): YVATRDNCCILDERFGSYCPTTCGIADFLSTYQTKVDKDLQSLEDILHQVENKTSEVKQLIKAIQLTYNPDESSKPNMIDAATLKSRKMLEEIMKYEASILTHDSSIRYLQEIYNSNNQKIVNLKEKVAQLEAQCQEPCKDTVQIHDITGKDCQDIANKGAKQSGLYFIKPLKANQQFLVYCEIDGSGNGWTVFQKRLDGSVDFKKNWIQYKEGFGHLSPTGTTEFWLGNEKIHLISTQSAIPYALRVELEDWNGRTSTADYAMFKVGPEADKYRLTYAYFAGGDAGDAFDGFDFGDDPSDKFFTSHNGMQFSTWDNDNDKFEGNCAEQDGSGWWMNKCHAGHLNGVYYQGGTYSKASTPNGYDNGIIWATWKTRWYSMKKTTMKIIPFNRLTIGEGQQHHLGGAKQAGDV
# Experimental: Lyophilized human serum was reconstituted in water to reach the typical concentration in blood; fibrinogen from human plasma was dissolved at 3 mg/ml concentrations in buffer B (10 mM HEPES, 150 mM NaCl, pH=7.4). For in situ protein-adsorption experiments, TiO2 coated waveguide sensors were modified with peptidomimetic polymers as explained previously. After equilibration of the OWLS baseline in buffer B, protein solution was injected and allowed to adsorb for 20 min at 37° C. before rinsing with buffer B. A refractive index value of 1.331 27 was used for buffer B, and a standard value of 0.182 cm^3/g was used for dn/dc in the protein-adsorption calculations.
# [5] = test system: E. coli; format: cell-based, Escherichia coli (ATCC 35218); settings: 16 h
# Experimental: as §1, §2
structure (smiles),measurement,setting,value
"COCCN(CC(=O)N(CCOC)CC(=O)N(CCOC)CC(=O)N(CCOC)CC(=O)N(CCOC)CC(=O)N(CCOC)CC(=O)N(CCOC)CC(=O)N(CCOC)CC(=O)N(CCOC)CC(=O)N(CCOC)CC(=O)N(CCOC)CC(=O)N(CCOC)CC(=O)N(CCOC)CC(=O)N(CCOC)CC(=O)N(CCOC)CC(=O)N(CCOC)CC(=O)N(CCOC)CC(=O)N(CCOC)CC(=O)N(CCOC)CC(=O)N(CCOC)CC(=O)N[C@@H](Cc1ccc(O)c(O)c1)C(=O)N[C@@H](CCCCN)C(=O)N[C@@H](Cc1ccc(O)c(O)c1)C(=O)N[C@@H](CCCCN)C(=O)N[C@@H](Cc1ccc(O)c(O)c1)C(N)=O)C(C)=O [PMP1, (Nme)20-(DOPA-Lys)2-DOPA] (Ac-[Nme][Nme][Nme][Nme][Nme][Nme][Nme][Nme][Nme][Nme][Nme][Nme][Nme][Nme][Nme][Nme][Nme][Nme][Nme][Nme][Dopa]K[Dopa]K[Dopa]-NH2; N-terminus and C-terminus assumed)",MIC S. epidermidis,[1],>100 µM
same,MIC B. subtilis,[2],>100 µM
same,MIC P. aeruginosa,[3],>100 µM
same,Adsorbed mass Fibrinogen,[4],7 ± 3 ng/cm^2
same,MIC E. coli,[5],>100 µM
